Where no end group is shown, it is not given here.
Assay: MTD and LD50, single intraperitoneal administration
Type: in vivo, mice
Settings: for No. of Survivors Day 1 / No. of Survivors Day 2 / No. of Survivors Day 3 / No. of Survivors Day 4 / No. of Survivors Day 5 / No. of Survivors Day 6 / No. of Survivors Day 7 / No. of Survivors Day 8 / No. of Survivors Day 11: 4 injected
Description: Determinations of a maximal tolerated dose (MTD) of a single intravenous (i.v.) administration or intraperitoneal (i.p.) administration of MSI-344 or MSI-1857 in 100 CD-1®BR mice were done. The MTD of a single intravenous (i.v.) administration was 10 mg/kg for MSI-344 and 60 mg/kg for MSI-1857. The MTD of a single intraperitoneal (i.p.) administration was less than 20 mg/kg for MSI-344 and between 50 and 100 mg/kg for MSI-1857.
To determine estimates of MTDs and LD50s of MSI-344 and MSI-1857 administered intravenously or intraperitoneally as a single bolus in mice.
A 5 mg/mL solution of MSI-344 was made in saline (0.9% sodium chloride injection USP, Abbott, North Chicago, Ill.) corrected for peptide content. Solutions of MSI-344 at concentrations of 4, 3, 2, 1.5, 1, and 0.5 mg/mL were made by diluting the 5 mg/mL solution using saline as diluent. (Errors were made in solution preparation of the 4, 3, and 2 mg/mL solutions and results from groups with animals doses with these solutions, i.e. groups 12, 13, and 14, were eliminated from study analysis). A 20 mg/mL solution of MSI-1857 was made in saline. Solutions of MSI-1857 at concentrations of 15, 10, 8, 6, and 5 mg/mL were made by diluting the 20 mg/mL solution using saline as diluent.
Another 5 mg/mL solution of MSI-344 was made in saline corrected for peptide content. Solutions of 4, 3 and 2 mg/mL were made by diluting the 5 mg/mL solution using saline as diluent. A 15 mg/mL solution of MSI-1857 in saline was made corrected for peptide content. A 10 mg/mL solution was made by diluting the 15 mg/mL solution with saline.
Mice (four mice per dose group) were intravenously or intraperitoneally administered a single bolus of MSI-344 or MSI-1857 using an injection volume of 10 mL/kg of the appropriate solution concentration. If the first two mice in a group died immediately (within 10 secs) after administration of a dose then no other mice injected with this dose of this compound (for ethical reasons). Survival was monitored daily for at least eight days post-administration. Study designs are presented in Tables IX and X. Toxicity Study # 262 was a supplement to Toxicity Study #261.

[1] = Tox Study 262 group 2, 50 mg/kg IP
[2] = Tox Study 262 group 3, 40 mg/kg IP
[3] = Tox Study 262 group 4, 30 mg/kg IP
[4] = Tox Study 262 group 5, 20 mg/kg IP
[5] = Tox Study #261 group 11, 50 mg/kg IP
[6] = Tox Study #261 group 12, dose TBD (solution error, eliminated from analysis) IP
[7] = Tox Study #261 group 13, dose TBD (solution error, eliminated from analysis) IP
[8] = Tox Study #261 group 14, dose TBD (solution error, eliminated from analysis) IP

Sequence: GIGKFLKKAKKFGKAFVKILKK [MSI-344]
- No. of Survivors Day 1 [1]: 0
- No. of Survivors Day 2 [1]: 0
- No. of Survivors Day 3 [1]: 0
- No. of Survivors Day 4 [1]: 0
- No. of Survivors Day 5 [1]: 0
- No. of Survivors Day 6 [1]: 0
- No. of Survivors Day 7 [1]: 0
- No. of Survivors Day 8 [1]: 0
- No. of Survivors Day 11 [1]: 0
- No. of Survivors Day 1 [2]: 0
- No. of Survivors Day 2 [2]: 0
- No. of Survivors Day 3 [2]: 0
- No. of Survivors Day 4 [2]: 0
- No. of Survivors Day 5 [2]: 0
- No. of Survivors Day 6 [2]: 0
- No. of Survivors Day 7 [2]: 0
- No. of Survivors Day 8 [2]: 0
- No. of Survivors Day 11 [2]: 0
- No. of Survivors Day 1 [3]: 0
- No. of Survivors Day 2 [3]: 0
- No. of Survivors Day 3 [3]: 0
- No. of Survivors Day 4 [3]: 0
- No. of Survivors Day 5 [3]: 0
- No. of Survivors Day 6 [3]: 0
- No. of Survivors Day 7 [3]: 0
- No. of Survivors Day 8 [3]: 0
- No. of Survivors Day 11 [3]: 0
- No. of Survivors Day 1 [4]: 3
- No. of Survivors Day 2 [4]: 3
- No. of Survivors Day 3 [4]: 3
- No. of Survivors Day 4 [4]: 3
- No. of Survivors Day 5 [4]: 3
- No. of Survivors Day 6 [4]: 3
- No. of Survivors Day 7 [4]: 3
- No. of Survivors Day 8 [4]: 3
- No. of Survivors Day 11 [4]: 3
- No. of Survivors Day 1 [5]: 0
- No. of Survivors Day 2 [5]: 0
- No. of Survivors Day 3 [5]: 0
- No. of Survivors Day 4 [5]: 0
- No. of Survivors Day 5 [5]: 0
- No. of Survivors Day 6 [5]: 0
- No. of Survivors Day 7 [5]: 0
- No. of Survivors Day 8 [5]: 0
- No. of Survivors Day 1 [6]: 2
- No. of Survivors Day 2 [6]: 1
- No. of Survivors Day 3 [6]: 1
- No. of Survivors Day 4 [6]: 1
- No. of Survivors Day 5 [6]: 1
- No. of Survivors Day 6 [6]: 1
- No. of Survivors Day 7 [6]: 1
- No. of Survivors Day 8 [6]: 1
- No. of Survivors Day 1 [7]: 0
- No. of Survivors Day 2 [7]: 0
- No. of Survivors Day 3 [7]: 0
- No. of Survivors Day 4 [7]: 0
- No. of Survivors Day 5 [7]: 0
- No. of Survivors Day 6 [7]: 0
- No. of Survivors Day 7 [7]: 0
- No. of Survivors Day 8 [7]: 0
- No. of Survivors Day 1 [8]: 2
- No. of Survivors Day 2 [8]: 1
- No. of Survivors Day 3 [8]: 1
- No. of Survivors Day 4 [8]: 1
- No. of Survivors Day 5 [8]: 1
- No. of Survivors Day 6 [8]: 1
- No. of Survivors Day 7 [8]: 1
- No. of Survivors Day 8 [8]: 1
- LD50 (mouse, in vivo, ip, CD-1 mice, estimated from dose response curves): 23.5 mg/kg
- MTD (mouse, in vivo, ip, CD-1 mice, read-out: MTD of a single intraperitoneal (i.p.) administration): < 20 mg/kg

Source: patent US6348445B1, “Biologically active peptides with reduced toxicity in animals and a method for preparing same” (priority 1992, dated 2002)
